The values below come from ChEMBL document CHEMBL1201862, “PubChem BioAssay data set” (2004).

Common to all, as to assay: NCI anticancer screen, dose series, 48 h
Experiment [1] has as its system A549.
Experiment [2] concerns CCRF-CEM.
Experiment [3] concerns HCT-15.
Experiment [4] concerns HL-60.
Experiment [5] relates to HOP-92.
The subject of experiment [6] is HT-29.
Experiment [7] relates to IGROV-1.
The test system of experiment [8] is K562.
Experiment [9] has as its system M14.
Experiment [10] deals with NCI-H226.
In experiment [11] the test system is NCI-H522.
The subject of experiment [12] is SF-268.
The subject of experiment [13] is SF-295.
In experiment [14] the test system is SF-539.
Experiment [15] concerns SK-MEL-28.
The test system of experiment [16] is SN12C.
For experiment [17], the system named is SW-620.
For experiment [18], the system named is UACC-62.
In experiment [19] the test system is PC-3.

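Growth conditions: 96-well plates. Treatment: test compound, 48 hours, 5 concentrations. Analysis: linear interpolation between bracketing concentrations; unreached endpoints set to highest concentration. The concentration for 50% growth inhibition is given as GI50.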 Calls of active or inactive are those of the source. Rule as the data show it: active = GI50 up to about 1.1 µM and inactive = higher. Some results are limits rather than exact numbers.

As for `O=C1C=CC(=O)c2cc(Sc3ccccc3)c(=O)c(Sc3ccccc3)cc21`, the GI50 in experiment [1] is 56.5 µM (inactive); in experiment [2] it was 17.3 µM (inactive); in experiment [3], 50.6 µM; in experiment [4] it was 10.6 µM (inactive); in [5], 18.9 µM (inactive); in experiment [6] it was > 100 µM (inactive). Further, the GI50 in experiment [7] was 68.5 µM (inactive); in experiment [8] it was 28.1 µM (inactive); in experiment [9], > 100 µM (inactive); in experiment [10], > 100 µM (inactive); in [11], 12.4 µM (inactive); in [12], 42 µM (inactive). The GI50 in experiment [13] was > 100 µM (inactive); in [14] it was > 100 µM (inactive); in experiment [15], 95.1 µM (inactive); in experiment [16], > 100 µM (inactive); in experiment [17], > 100 µM (inactive); in [18], 24.8 µM (inactive).
On to `CCCCCC/C(CC(=O)CCC(=O)NCCc1ccccc1)=N\Nc1ccc([N+](=O)[O-])cc1[N+](=O)[O-]`, for which the GI50 is 87.7 µM (inactive) in experiment [1]; 22.1 µM (inactive) in experiment [2]; 69.3 µM in [3]; 27.9 µM (inactive) in experiment [4]; 41.7 µM (inactive) in [5]; > 100 µM (inactive) in [6]. The GI50 is > 100 µM (inactive) in [7]; 38.1 µM (inactive) in experiment [8]; > 100 µM (inactive) in experiment [9]; 60.4 µM (inactive) in [10]; 39.9 µM (inactive) in experiment [11]; 71.6 µM (inactive) in experiment [12]. The GI50 in [13] was > 100 µM (inactive); in experiment [14], > 100 µM (inactive); in experiment [15], > 100 µM (inactive); in [16] it was 82 µM (inactive); in experiment [17], 68.1 µM (inactive); in [18], 30.5 µM (inactive).
Turning to `CCOc1ccc(/N=N/c2ccc3oc(=O)c(/C(C)=N/NC(=O)CC(=O)Nc4cccc(OC)c4)cc3c2)cc1`, the GI50 in experiment [1] is 28.2 µM (inactive); in experiment [2], 3.16 µM (inactive); in [3], 30.3 µM; in experiment [4], 3.64 µM (inactive); in [5] it was 19.1 µM (inactive); in [7] it was 23.6 µM (inactive). The GI50 in experiment [8] was 7.96 µM (inactive); in experiment [9], 16.4 µM (inactive); in [10] it was > 39.7 µM (inactive); in experiment [11], 21.4 µM (inactive); in experiment [12], 13.3 µM (inactive); in [13] it was 19 µM (inactive). Moreover, the GI50 in [14] was 17.2 µM (inactive); in experiment [15] it was 20.8 µM (inactive); in experiment [16] it was 15.6 µM (inactive); in [17] it was 21.4 µM (inactive); in [18], 13.2 µM (inactive).
On to `CCOP(=O)(Cc1ccc(CP(=O)(OCC)OCC)n1C)OCC`, for which the GI50 in experiment [1] was > 100 µM (inactive); in experiment [2], > 100 µM (inactive); in experiment [3], greater than 100 µM; in [4] it was > 100 µM (inactive); in experiment [5], > 100 µM (inactive); in experiment [6] it was > 100 µM (inactive). Further, the GI50 in [7], in experiment [8], in experiment [9], in experiment [11], in experiment [12] and in [13] was > 100 µM (inactive) each time. For the same molecule, the GI50 in experiment [14], in experiment [15], in experiment [16], in [17] and in [18] was > 100 µM (inactive) in each case.
With `COc1cc(C2C(C(=O)Nc3ccccc3)=C(C)NC(C)=C2C(=O)Nc2ccccc2)ccc1O`, the GI50 in [1] was 40.6 µM (inactive); in experiment [3], 43.5 µM; in experiment [4], 22.4 µM (inactive); in experiment [5], 19.3 µM (inactive); in [6], 18.7 µM (inactive); in [7] it was 37 µM (inactive). In addition, the GI50 was 30.6 µM (inactive) in [8]; 49.3 µM (inactive) in experiment [10]; > 10 µM (inactive) in [11]; > 100 µM (inactive) in experiment [12]; 49.9 µM (inactive) in experiment [13]; 21.6 µM (inactive) in experiment [14]. The GI50 in experiment [15] is 46.7 µM (inactive); in [16] it was 39.5 µM (inactive); in experiment [17], 37.9 µM (inactive).
Consider `C(=N\Nc1ccccc1)/c1nc2ccccc2nc1/C=N/Nc1ccccc1`, for which the GI50 is 14.3 µM (inactive) in [1]; 23.6 µM (inactive) in [2]; 4.39 µM in [3]; 31 µM (inactive) in experiment [4]; 17.5 µM (inactive) in experiment [5]; 10.8 µM (inactive) in [6]. Moreover, the GI50 in experiment [7] is 12.1 µM (inactive); in [8], 7.6 µM (inactive); in experiment [9], 14.7 µM (inactive); in experiment [10] it was 18 µM (inactive); in experiment [11], 16.5 µM (inactive); in experiment [12] it was 13.1 µM (inactive). The GI50 was 16.2 µM (inactive) in experiment [13]; 14.8 µM (inactive) in [14]; 17.5 µM (inactive) in experiment [15]; 16.2 µM (inactive) in experiment [16]; 14.9 µM (inactive) in [17]; 12.9 µM (inactive) in experiment [18].
On to `O=C(O)c1ccc([I+]c2ccccc2)cc1`, for which the GI50 in experiment [1] is > 100 µM (inactive); in experiment [2], > 100 µM (inactive); in experiment [3] it was greater than 100 µM; in experiment [4], > 100 µM (inactive); in experiment [5], > 100 µM (inactive); in experiment [6] it was > 100 µM (inactive). For the same molecule, the GI50 in experiment [7], in experiment [8], in experiment [9], in [10], in experiment [11] and in experiment [12] was > 100 µM (inactive) in each case. For the same molecule, the GI50 in experiment [13], in experiment [14], in [16], in experiment [17] and in experiment [18] was > 100 µM (inactive) each time.
`CC1(C)CSCC(C)(C)C(=N/N)/C1=N\N`: the GI50 in experiment [1] is > 100 µM (inactive); in [3], greater than 100 µM; in [4], > 100 µM (inactive); in experiment [5] it was > 100 µM (inactive); in [6], > 100 µM (inactive); in experiment [7], > 100 µM (inactive). The GI50 in experiment [8], in experiment [9], in experiment [10], in [11], in experiment [19] and in experiment [12] was > 100 µM (inactive) in each case. For the same molecule, the GI50 in experiment [13], in [14], in experiment [15], in experiment [16], in experiment [17] and in [18] was > 100 µM (inactive) each time.
Regarding `COc1cc2ccn3c4cc(OC)c(OC)cc4cc3c2cc1OC`, the GI50 in [1] was > 100 µM (inactive); in experiment [2], > 100 µM (inactive); in experiment [4], 4.83 µM (inactive); in [5], > 100 µM (inactive); in [6], > 100 µM (inactive); in [8], > 100 µM (inactive). Further, the GI50 is 63.1 µM (inactive) in experiment [9]; > 100 µM (inactive) in [10]; 11.3 µM (inactive) in experiment [11]; > 100 µM (inactive) in [12]; > 100 µM (inactive) in experiment [13]; > 100 µM (inactive) in experiment [15]. Besides, the GI50 in [16], in experiment [17] and in [18] was > 100 µM (inactive) throughout.
Consider `N#Cc1ccccc1NC(=O)C(=O)C(C(=O)c1ccncc1)C1OC(=O)c2ccccc21` (stereo unspecified), for which the GI50 was > 100 µM (inactive) in experiment [1]; 79.3 µM (inactive) in [2]; greater than 100 µM in [3]; > 100 µM (inactive) in [4]; > 100 µM (inactive) in [5]; > 100 µM (inactive) in experiment [6]. Besides, the GI50 in experiment [7], in experiment [8], in experiment [9], in [10], in experiment [11] and in experiment [12] was > 100 µM (inactive) throughout. For the same molecule, the GI50 in experiment [13], in experiment [14], in experiment [15], in experiment [16], in experiment [17] and in experiment [18] was > 100 µM (inactive) throughout.
On to `CC(/C(=N/NC(=O)C(N)=O)c1c(Cl)ccc(Cl)c1O)C1(O)C(=O)Nc2ccccc21` (stereo unspecified), for which the GI50 in [1] was 50.2 µM (inactive); in experiment [2], 31.8 µM (inactive); in [3] it was 34.1 µM; in [4], 26 µM (inactive); in experiment [5], 27.8 µM (inactive); in [6], 39.5 µM (inactive). For the same molecule, the GI50 in experiment [7] is 29.9 µM (inactive); in experiment [8] it was 31 µM (inactive); in experiment [9], 68.7 µM (inactive); in experiment [10] it was 29.3 µM (inactive); in experiment [11] it was 19.2 µM (inactive); in experiment [12], > 100 µM (inactive). Also, the GI50 in experiment [13] is > 100 µM (inactive); in experiment [14], 32 µM (inactive); in experiment [15] it was > 100 µM (inactive); in [16], 70.3 µM (inactive); in [17], 41.7 µM (inactive); in [18], 49.1 µM (inactive).
On to `C[C@@H]1OC(=O)N2CCCC(=C3SCCCS3)C12` (stereo partly specified), for which the GI50 in experiment [1] was 78.5 µM (inactive); in experiment [2], 46.6 µM (inactive); in experiment [3] it was greater than 100 µM; in [5], 29.6 µM (inactive); in experiment [6], 70.1 µM (inactive); in [7], 90.8 µM (inactive). Also, the GI50 in experiment [8] was 43.6 µM (inactive); in experiment [9], 48.9 µM (inactive); in experiment [10], 44.9 µM (inactive); in [11], 59.2 µM (inactive); in [12], 61.9 µM (inactive); in experiment [13] it was 90.2 µM (inactive). In addition, the GI50 in experiment [14] is > 100 µM (inactive); in [15], > 100 µM (inactive); in experiment [16], > 100 µM (inactive); in experiment [17] it was > 100 µM (inactive); in experiment [18], 56.1 µM (inactive).
